Literature values, collected in article PMC7395068, “The evolution of strategies to minimise the risk of human drug-induced liver injury (DILI) in drug discovery and development” (Archives of Toxicology, 2020).
Like-named read-outs stand apart in the source and are kept apart here.

Legend:
[1] = cited from earlier work
[2] = cited from earlier work; remark: listed apart in the source
[3] = test system: HepG2 cells; details: In vitro Assay; ref Persson 2013; cited from earlier work
[4] = test system: HepG2 cells; details: cited from earlier work
[5] = test system: isolated mouse liver mitochondria; details: cited from earlier work
[6] = test system: primary human hepatocytes, NIH3T3 fibroblasts, BSEP, CYP3A4; details: cited from earlier work
[7] = test system: THLE or HepG2 cells, isolated mitochondria, BSEP; details: cited from earlier work
[8] = test system: human hepatocytes; details: cited from earlier work
[9] = In vitro Assay, ref O'Brien 2006
[10] = In vitro Assay, ref Porceddu 2012
[11] = In vitro Assay, ref Schadt 2015

Row | Compound | DILI +VE (5-8), DILI -VE (-4) ([1]; ref Chen 2016) | DILI severity category ([1]; ref Chen 2016) | In vivo DILI ([2]; ref O'Brien 2006) | Structural based (HCI) [4, 9] | Structural based (HCI) ([8]; In vitro Assay, ref Xu 2008) | In vivo DILI ([2]; ref Xu 2008) | other results
1 | O=C1Nc2ccc(Cl)cc2[C@@](C#CC2CC2)(C(F)(F)F)O1 [efavirenz] | +VE | vMost-DILI-Concern | +VE | +VE (lowest HCI endpoint IC50 (or in the absence of dose–response < 100 µM) < 30 × total human plasma exposure levels (Cmax.tot)) | – | – | In vivo DILI ([2]; ref Persson 2013): +VE; Cluser analysis [3]: +VE; Structural based (HCI) [3]: +VE
2 | O=[N+]([O-])O[C@H]1CO[C@H]2[C@@H]1OC[C@H]2O[N+](=O)[O-] [isosorbide dinitrate] | -VE | vNo-DILI-Concern | -VE | +VE (lowest HCI endpoint IC50 (or in the absence of dose–response < 100 µM) < 30 × total human plasma exposure levels (Cmax.tot)) | – | – | In vivo DILI ([2]; ref Persson 2013): -VE; Cluser analysis [3]: -VE; Structural based (HCI) [3]: -VE
3 | COc1cccc2c1C(=O)c1c(O)c3c(c(O)c1C2=O)C[C@@](O)(C(=O)CO)C[C@@H]3O[C@H]1C[C@H](N)[C@H](O)[C@H](C)O1 [doxorubicin] | +VE | vLess-DILI-Concern | +VE | +VE | – | – | In vivo DILI ([2]; […]): +VE; In vivo DILI ([2]; ref Porceddu 2012): +VE; In vivo DILI ([2]; ref Schadt 2015): -VE; in vitro data EC2<=1x Cmax [5, 10]: +VE; in vitro data EC20<=2uM [5, 10]: +VE; Cellular toxicity (3T3 cells) [6, 11]: +VE; GSH adduct HML [6, 11]: -VE; Hepatocyte cellular toxicity [6, 11]: -VE; MitoTox 3T3 [6, 11]: -VE; TDI CYP3A4 [6, 11]: -VE; hBSEP inhibition [6, 11]: -VE
4 | Cc1ncc(C[n+]2csc(CCO)c2C)c(N)n1 [thiamine] | -VE | vNo-DILI-Concern | -VE | +VE (lowest HCI endpoint IC50 (or in the absence of dose–response < 100 µM) < 30 × total human plasma exposure levels (Cmax.tot)) | – | – | In vivo DILI ([2]; ref Persson 2013): -VE; Cluser analysis [3]: -VE; Structural based (HCI) [3]: -VE
5 | NC[C@H]1O[C@H](O[C@H]2[C@H](O)[C@@H](O[C@H]3O[C@H](CO)[C@@H](O)[C@H](N)[C@H]3O)[C@H](N)C[C@@H]2N)[C@H](O)[C@@H](O)[C@@H]1O [kanamycin] | – | – | – | – | – | – | Partition Hybrid HRM Score [7]: -VE; Ro2 Hybrid HRM Score [7]: -VE; Structural based (HCI) [4]: +VE
6 | CC1(C)O[C@@H]2[C@@H](CO[C@@]3(COS(N)(=O)=O)OC(C)(C)O[C@@H]23)O1 [topiramate] | +VE | vLess-DILI-Concern | -VE | +VE (lowest HCI endpoint IC50 (or in the absence of dose–response < 100 µM) < 30 × total human plasma exposure levels (Cmax.tot)) | – | – | In vivo DILI ([2]; ref Persson 2013): -VE; Cluser analysis [3]: -VE; Structural based (HCI) [3]: -VE
7 | cyanocobalamin | – | – | -VE | -VE | -VE | -VE | DILI +VE (5-8), DILI -VE (-4) ([1]; in vivo): -VE; DILI severity category ([1]; in vivo): vNo-DILI-Concern; In vivo DILI ([2]; ref Aleo 2019): -VE; Partition Hybrid HRM Score ([7]; In vitro Assay, ref Aleo 2019): -VE; Ro2 Hybrid HRM Score ([7]; In vitro Assay, ref Aleo 2019): -VE
8 | C[N+](C)(C)CCOP(=O)(O)OP(=O)([O-])OC[C@H]1O[C@@H](n2ccc(N)nc2=O)[C@H](O)[C@@H]1O [citicoline] | – | – | -VE | +VE (lowest HCI endpoint IC50 (or in the absence of dose–response < 100 µM) < 30 × total human plasma exposure levels (Cmax.tot)) | – | – | In vivo DILI ([2]; ref Persson 2013): -VE; Cluser analysis [3]: -VE; Structural based (HCI) [3]: -VE
9 | COC(=O)Nc1nc2ccc(C(=O)c3cccs3)cc2[nH]1 [nocodazole] | – | – | -VE | +VE (lowest HCI endpoint IC50 (or in the absence of dose–response < 100 µM) < 30 × total human plasma exposure levels (Cmax.tot)) | -VE | -VE | –
10 | COc1cc(C(=O)NS(=O)(=O)c2ccccc2C)ccc1Cc1cn(C)c2ccc(NC(=O)OC3CCCC3)cc12 [zafirlukast] | +VE | vMost-DILI-Concern | +VE | +VE | -VE | +VE | In vivo DILI ([2]; […]): +VE; In vivo DILI ([2]; ref Aleo 2019): +VE; Partition Hybrid HRM Score ([7]; In vitro Assay, ref Aleo 2019): +VE; Ro2 Hybrid HRM Score ([7]; In vitro Assay, ref Aleo 2019): +VE
11 | CC[C@H](C)C(=O)O[C@H]1C[C@H](O)C=C2C=C[C@H](C)[C@H](CC[C@@H](O)C[C@@H](O)CC(=O)O)[C@H]21 [pravastatin] | +VE | vLess-DILI-Concern | +VE | -VE | – | – | In vivo DILI ([2]; […]): -VE; In vivo DILI ([2]; ref Aleo 2019): +VE; In vivo DILI ([2]; ref Porceddu 2012): +VE; in vitro data EC2<=1x Cmax [5, 10]: -VE; in vitro data EC20<=2uM [5, 10]: -VE; Partition Hybrid HRM Score ([7]; In vitro Assay, ref Aleo 2019): +VE; Ro2 Hybrid HRM Score ([7]; In vitro Assay, ref Aleo 2019): -VE
12 | CC12CC3CC(C)(C1)CC(N)(C3)C2 [memantine] | +VE | vLess-DILI-Concern | -VE | -VE | -VE | -VE | –
13 | CCCCN1CCCCC1C(=O)Nc1c(C)cccc1C (stereo not drawn) [bupivacaine] | – | – | -VE | +VE (lowest HCI endpoint IC50 (or in the absence of dose–response < 100 µM) < 30 × total human plasma exposure levels (Cmax.tot)) | -VE | -VE | In vivo DILI ([2]; ref Porceddu 2012): +VE; in vitro data EC2<=1x Cmax [5, 10]: -VE; in vitro data EC20<=2uM [5, 10]: -VE
14 | CCc1nc(N)nc(N)c1-c1ccc(Cl)cc1 [pyrimethamine] | +VE | vLess-DILI-Concern | +VE | +VE | +VE | +VE | In vivo DILI ([2]; ref Schadt 2015): -VE; Cellular toxicity (3T3 cells) [6]: -VE; Combined Assay [6]: -VE; GSH adduct HML [6]: -VE; Hepatocyte cellular toxicity [6]: -VE; MitoTox 3T3 [6]: -VE; TDI CYP3A4 [6]: -VE; hBSEP inhibition [6]: -VE
15 | O=C(O)c1cccnc1 [niacin] | – | – | – | -VE | – | – | Partition Hybrid HRM Score ([7]; In vitro Assay, ref Aleo 2019): +VE; Ro2 Hybrid HRM Score ([7]; In vitro Assay, ref Aleo 2019): -VE
16 | Nc1ccn([C@H]2CC[C@@H](CO)O2)c(=O)n1 [zalcitabine] | – | – | -VE | -VE | -VE | -VE | In vivo DILI ([2]; ref Aleo 2019): +VE; Partition Hybrid HRM Score ([7]; In vitro Assay, ref Aleo 2019): -VE; Ro2 Hybrid HRM Score ([7]; In vitro Assay, ref Aleo 2019): -VE
17 | Cc1cn([C@H]2C[C@H](N=[N+]=[N-])[C@@H](CO)O2)c(=O)[nH]c1=O [zidovudine] | – | – | – | – | – | – | Structural based (HCI) [8]: -VE; DILI severity category ([1]; in vivo): vMost-DILI-Concern; in vitro data EC2<=1x Cmax [5, 10]: +VE; in vitro data EC20<=2uM [5]: -VE; Partition Hybrid HRM Score [7]: -VE; Ro2 Hybrid HRM Score [7]: -VE; Structural based (HCI) [4]: +VE
18 | C=C1c2cccc(O)c2C(=O)C2=C(O)[C@]3(O)C(=O)C(C(N)=O)=C(O)[C@@H](N(C)C)[C@@H]3[C@@H](O)[C@H]12 [methacycline] | – | – | +VE | +VE (lowest HCI endpoint IC50 (or in the absence of dose–response < 100 µM) < 30 × total human plasma exposure levels (Cmax.tot)) | +VE | +VE | –
19 | NNc1nncc2ccccc12 [hydralazine] | +VE | vLess-DILI-Concern | +VE | +VE (lowest HCI endpoint IC50 (or in the absence of dose–response < 100 µM) < 30 × total human plasma exposure levels (Cmax.tot)) | – | – | In vivo DILI ([2]; […]): +VE
